Assay results published in PubChem BioAssay AID248 (DTP/NCI, 2004).
Where “and” joins values, the source holds several entries; their conditions need not be identical. Equal entries are not always repeated. Toxic doses and inconclusive results are not listed. No stated cut-off is given here; in the data, active means T/C of 150% or more; inactive means T/C below 125%.

Test system: L1210 leukemia ip in BDF1 mice, survival T/C
Experiment: NCI In Vivo Anticancer Drug Screen. Data for tumor model L1210 Leukemia (intraperitoneal) in B6D2F1 (BDF1) mice
Details: endpoint: mean survival time, higher = longer survival
Method in brief: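 Each compound was tested against a transplantable tumor grown in mice. The endpoint was survival, with treated animals benchmarked against vehicle controls as a simple ratio.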

[1] = dose: 25.0 mg/kg/injection, schedule: Q01DX009 (ip), vehicle: saline with Tween-80
[2] = dose: 50.0 mg/kg/injection, schedule: Q01DX009 (ip), vehicle: saline with Tween-80
[3] = dose: 100.0 mg/kg/injection, schedule: Q04DX003 (ip), vehicle: saline with Tween-80
[4] = dose: 12.5 mg/kg/injection, schedule: Q01DX009 (ip), vehicle: Klucel (hydroxypropylcellulose) (HPC)
[5] = dose: 25.0 mg/kg/injection, schedule: Q04DX003 (ip), vehicle: Klucel (hydroxypropylcellulose) (HPC)
[6] = dose: 100.0 mg/kg/injection, schedule: Q01DX009 (ip), vehicle: Klucel (hydroxypropylcellulose) (HPC)
[7] = dose: 200.0 mg/kg/injection, schedule: Q01DX009 (ip), vehicle: Klucel (hydroxypropylcellulose) (HPC)
[8] = dose: 200.0 mg/kg/injection, schedule: Q04DX003 (ip), vehicle: Klucel (hydroxypropylcellulose) (HPC)
[9] = dose: 400.0 mg/kg/injection, schedule: Q01DX009 (ip), vehicle: Klucel (hydroxypropylcellulose) (HPC)
[10] = dose: 400.0 mg/kg/injection, schedule: Q04DX003 (ip), vehicle: Klucel (hydroxypropylcellulose) (HPC)
[11] = dose: 5.0 mg/kg/injection, schedule: Q01DX001 (ip), vehicle: other
[12] = dose: 10.0 mg/kg/injection, schedule: Q01DX001 (ip), vehicle: other
[13] = dose: 100.0 mg/kg/injection, schedule: Q01DX009 (ip), vehicle: saline with Tween-80
[14] = dose: 200.0 mg/kg/injection, schedule: Q01DX009 (ip), vehicle: saline with Tween-80
[15] = dose: 100.0 mg/kg/injection, schedule: Q01DX001 (ip), vehicle: carboxymethylcellulose (CMC)
[16] = dose: 200.0 mg/kg/injection, schedule: Q01DX001 (ip), vehicle: carboxymethylcellulose (CMC)
[17] = dose: 400.0 mg/kg/injection, schedule: Q01DX001 (ip), vehicle: carboxymethylcellulose (CMC)
[18] = dose: 200.0 mg/kg/injection, schedule: Q04DX003 (ip), vehicle: saline with Tween-80
[19] = dose: 400.0 mg/kg/injection, schedule: Q04DX003 (ip), vehicle: saline with Tween-80
[20] = dose: 100.0 mg/kg/injection, schedule: Q01DX001 (ip), vehicle: saline
[21] = dose: 200.0 mg/kg/injection, schedule: Q01DX001 (ip), vehicle: saline
[22] = dose: 400.0 mg/kg/injection, schedule: Q01DX001 (ip), vehicle: saline
[23] = dose: 100.0 mg/kg/injection, schedule: Q01DX009 (ip), vehicle: saline

Measured: T/C

CCCCn1nnc2c(NN)nc(N)nc21
inactive: [1] 102 % of control | dose: 25.0 mg/kg/injection, schedule: Q04DX003 (ip), vehicle: saline with Tween-80 100 % of control | [2] 101 % of control | dose: 50.0 mg/kg/injection, schedule: Q04DX003 (ip), vehicle: saline with Tween-80 94 % of control | [3] 100 % of control

NC1C(=O)Nc2cc(O)c(C(=O)O)cc21 (stereo not given)
inactive: dose: 100.0 mg/kg/injection, schedule: Q01DX001 (ip), vehicle: gum acacia 100 % of control | dose: 200.0 mg/kg/injection, schedule: Q01DX001 (ip), vehicle: gum acacia 100 % of control | dose: 400.0 mg/kg/injection, schedule: Q01DX001 (ip), vehicle: gum acacia 97 % of control

Clc1nc2ccccc2nc1CI
inactive: dose: 6.25 mg/kg/injection, schedule: Q01DX009 (ip), vehicle: Klucel (hydroxypropylcellulose) (HPC) 94 % of control | [4] 102 % of control | [1] 89 % of control | [5] 102 % of control | dose: 50.0 mg/kg/injection, schedule: Q04DX003 (ip), vehicle: Klucel (hydroxypropylcellulose) (HPC) 90 % of control

CCC(CC)(COS(=O)(=O)c1ccc(C)cc1)COS(=O)(=O)c1ccc(C)cc1
inactive: [6] 93 % of control | [7] 89 % of control | [8] 94 % of control | [9] 88 % of control | [10] 96 % of control

CCOC(=O)Cc1c(C)[nH]c2c(C)ccc(C)c12
inactive: [11] 94 % of control | [12] 91 % of control | dose: 20.0 mg/kg/injection, schedule: Q01DX001 (ip), vehicle: other 105 % of control | dose: 40.0 mg/kg/injection, schedule: Q01DX001 (ip), vehicle: other 96 % of control | dose: 80.0 mg/kg/injection, schedule: Q01DX001 (ip), vehicle: other 100 % of control

CC1(C)C2CCC(CCOC(=O)COc3ccc(Cl)cc3Cl)C1C2 (stereo not given)
inactive: [13] 104 % of control | [14] 94 % of control

COc1cc2c(cc1OC)C1C(C)c3ccc(OC)c(OC)c3CN1CC2 (stereo not given)
inactive: [15] 100 % of control | [16] 100 % of control | [17] 96 % of control

COc1ccc2c(c1)C1CCCCC1SCC2=O (stereo not given)
inactive: dose: 100.0 mg/kg/injection, schedule: Q01DX001 (ip), vehicle: other 100 % of control | dose: 200.0 mg/kg/injection, schedule: Q01DX001 (ip), vehicle: other 96 % of control | dose: 400.0 mg/kg/injection, schedule: Q01DX001 (ip), vehicle: other 96 % of control

O=C1c2c(Cl)cccc2Cc2cccc(Cl)c21
inactive: dose: 37.5 mg/kg/injection, schedule: Q01DX001 (ip), vehicle: Klucel (hydroxypropylcellulose) (HPC) 107 % of control | dose: 75.0 mg/kg/injection, schedule: Q01DX001 (ip), vehicle: Klucel (hydroxypropylcellulose) (HPC) 102 % of control | dose: 150.0 mg/kg/injection, schedule: Q01DX001 (ip), vehicle: Klucel (hydroxypropylcellulose) (HPC) 100 % of control

[O-][n+]1ccc(Cl)c2ccsc21
inactive: [2] 102 % of control | [13] 96 % of control | [3] 103 % of control | [14] 101 % of control | [18] 97 % of control | [19] 98 % of control

c1ccc(N=NC2(c3ccccc3)CCC(c3ccccc3)=NN2c2ccccc2)cc1 (stereo not given)
inactive: [3] 100 % of control | [18] 89 % of control | [19] 93 % of control

c1cc[c]([Pb]([c]2ccccc2)([c]2ccccc2)[n]2cnc3cncnc32)cc1
inactive: [11] 103 % of control | [12] 95 % of control

COc1ccc(C(=O)Nc2cccc(C(F)(F)F)c2)cc1
inactive: dose: 100.0 mg/kg/injection, schedule: Q01DX001 (ip), vehicle: saline with Tween-80 97 % of control | [13] 100 % of control | dose: 100.0 mg/kg/injection, schedule: Q04DX002 (ip), vehicle: saline with Tween-80 100 % of control and 105 % of control | dose: 200.0 mg/kg/injection, schedule: Q01DX001 (ip), vehicle: saline with Tween-80 100 % of control | [14] 121 % of control | dose: 200.0 mg/kg/injection, schedule: Q04DX002 (ip), vehicle: saline with Tween-80 100 % of control and 108 % of control | dose: 400.0 mg/kg/injection, schedule: Q01DX001 (ip), vehicle: saline with Tween-80 98 % of control | dose: 400.0 mg/kg/injection, schedule: Q01DX009 (ip), vehicle: saline with Tween-80 118 % of control | dose: 400.0 mg/kg/injection, schedule: Q04DX002 (ip), vehicle: saline with Tween-80 107 % of control and 90 % of control

O=C(O)COc1ccc(F)c(F)c1F
inactive: dose: 100.0 mg/kg/injection, schedule: Q04DX002 (ip), vehicle: other 107 % of control | dose: 200.0 mg/kg/injection, schedule: Q04DX002 (ip), vehicle: other 100 % of control | dose: 400.0 mg/kg/injection, schedule: Q04DX002 (ip), vehicle: other 91 % of control

O=C(O)C1C2C=CC(C2)C1(C(=O)O)c1ccccc1 (stereo not given)
inactive: [15] 95 % of control | dose: 100.0 mg/kg/injection, schedule: Q04DX003 (ip), vehicle: carboxymethylcellulose (CMC) 98 % of control | [16] 95 % of control | dose: 200.0 mg/kg/injection, schedule: Q04DX003 (ip), vehicle: carboxymethylcellulose (CMC) 92 % of control

CCOC(=O)CCc1ccc(N=NN(C)C)cc1
inactive: dose: 125.0 mg/kg/injection, schedule: Q01DX009 (ip), vehicle: saline 115 % of control

O=C1C(Cl)=C(Nc2ccc(Cl)cc2)C(=O)c2ccccc21
inactive: dose: 50.0 mg/kg/injection, schedule: Q01DX001 (ip), vehicle: carboxymethylcellulose (CMC) 95 % of control | [15] 89 % of control | [16] 98 % of control | [17] 93 % of control

c1cc(C2OCCO2)ccn1
inactive: [20] 101 % of control | dose: 100.0 mg/kg/injection, schedule: Q04DX003 (ip), vehicle: saline 107 % of control | [21] 100 % of control | dose: 200.0 mg/kg/injection, schedule: Q04DX003 (ip), vehicle: saline 100 % of control | [22] 100 % of control | dose: 400.0 mg/kg/injection, schedule: Q04DX003 (ip), vehicle: saline 97 % of control

CC(=O)c1c(C)cc(=O)[nH]c1O
inactive: [20] 107 % of control | [21] 97 % of control | [22] 110 % of control

COc1ccccc1NC(=O)NCc1cc(C)ccc1C
inactive: [6] 93 % of control | [7] 88 % of control | [9] 93 % of control

NNC(=O)Cc1ccc([N+](=O)[O-])cc1
inactive: dose: 50.0 mg/kg/injection, schedule: Q01DX009 (ip), vehicle: saline 94 % of control | [20] 97 % of control | [23] 103 % of control | [21] 94 % of control | dose: 200.0 mg/kg/injection, schedule: Q01DX009 (ip), vehicle: saline 105 % of control

Cc1cccc(Cl)c1NC(N)=O
inactive: [6] 102 % of control | dose: 100.0 mg/kg/injection, schedule: Q04DX003 (ip), vehicle: Klucel (hydroxypropylcellulose) (HPC) 103 % of control | [7] 102 % of control | [8] 94 % of control | [9] 97 % of control | [10] 95 % of control

CCN(CC)c1ccc(NC(C)=O)cc1
inactive: [4] 106 % of control | dose: 12.5 mg/kg/injection, schedule: Q04DX003 (ip), vehicle: Klucel (hydroxypropylcellulose) (HPC) 92 % of control | dose: 25.0 mg/kg/injection, schedule: Q01DX009 (ip), vehicle: Klucel (hydroxypropylcellulose) (HPC) 97 % of control | [5] 91 % of control | dose: 50.0 mg/kg/injection, schedule: Q01DX009 (ip), vehicle: Klucel (hydroxypropylcellulose) (HPC) 95 % of control

C=CCN(C=O)CC=C
inactive: [23] 101 % of control
